ChEMBL document CHEMBL5518209, “Caltrop-like Small-Molecule Antidotes That Neutralize Unfractionated Heparin and Low-Molecular-Weight Heparin In Vivo” (J Med Chem, 2024)
Active and inactive are the calls of the source. The calls are words filed in the database; no cut-off is given here.

Key:
Homo sapiens [1] = organism: Homo sapiens; assay: Reversal of anticoagulation of enoxaparin sodium in human whole blood assessed as restoration of normal clotting time at 5 to 20 ug/ml incubated for 5 mins by thromboelastography; format: tissue-based; details: dose 5-20 µg/ml
Bos taurus [2] = organism: Bos taurus; assay: Neutralization of nadroparin calcium in bovine plasma at 10 to 60 ug/ml by aPTT assay; format: cell-free; details: dose 10-60 µg/ml
Mus musculus [3] = assay: In vivo antagonism of unfractionated heparin induced anticoagulation in ICR mouse assessed as bleeding time at 0.4 mg/kg, iv administered via tail vein pretreated with heparin for 5 mins followed by compound addition and measured after 5 mins (reference value: 96.5 +/- 20.6 min); format: functional
Homo sapiens [4] = organism: Homo sapiens; assay: Neutralization of unfractionated heparin in human poor platelet plasma at 10 to 50 ug/ml by aPTT assay relative to control; format: cell-free; details: dose 10-50 µg/ml
Homo sapiens [5] = organism: Homo sapiens; assay: Reversal of anticoagulation of unfractionated heparin in human whole blood assessed as minimum effective dose incubated for 5 mins by thromboelastography; format: tissue-based
Bos taurus [6] = organism: Bos taurus; assay: Neutralization of dalteparin sodium in bovine plasma at 10 to 60 ug/ml by aPTT assay; format: cell-free; details: dose 10-60 µg/ml
[7] = Binding affinity to dalteparin sodium in saline at pH 7.4 assessed as change in enthalpy by ITC analysis
[8] = Binding affinity to unfractionated heparin in saline at pH 7.4 assessed as change in enthalpy by ITC analysis
[9] = Binding affinity to unfractionated heparin in saline at pH 7.4 assessed as change in gibbs free energy by ITC analysis
[10] = Acute toxicity in iv dosed ICR mouse assessed as maximum tolerated dose measured after 7 days; format: organism-based; details: in vivo, time 7 day
Homo sapiens [11] = organism: Homo sapiens; assay: Reversal of anticoagulation of nadroparin calcium in human whole blood assessed as restoration of normal coagulation rate at 5 to 20 ug/ml incubated for 5 mins by thromboelastography; format: tissue-based; details: dose 5-20 µg/ml
[12] = Toxicity in Sprague-Dawley rat assessed as change in urine indexes at 0.4 mg/kg, iv measured after 5 hrs; format: organism-based; details: in vivo
[13] = Toxicity in Sprague-Dawley rat assessed as abnormal index of microalbumin at 25 mg/kg, iv measured after 5 hrs; format: organism-based; details: in vivo
[14] = Binding affinity to dalteparin sodium in saline at pH 7.4 assessed as binding constant by ITC analysis
[15] = Toxicity in ICR mouse assessed as histopathological changes in spleen at 25 mg/kg, iv administered as single dose through tail vein and measured after 14 days by H and E staining based analysis; format: organism-based; details: in vivo, 336 h, time 14 day
Blood [16] = assay: Blood compatibility in human whole blood assessed as effect on clotting strength at 0 to 20 ug/ml measured upto 50 mins by thromboelastography; format: toxicity, tissue-based; details: dose 0-20 µg/ml
Homo sapiens [17] = organism: Homo sapiens; assay: Reversal of anticoagulation of dalteparin sodium in human whole blood assessed as minimum effective dose incubated for 5 mins by thromboelastography; format: tissue-based
[18] = Cytotoxicity against rat H9c2 cells assessed as cell viability at 300 ug/ml incubated for 24 hrs by CCK-8 assay relative to control; format: toxicity, cell-based; details: at 300 µg/mL, read-out: Activity
Blood [19] = assay: Ex vivo neutralization of unfractionated heparin in Sprague-Dawley rat whole blood assessed as restoration of blood coagulation at 10 to 15 ug/ml incubated for 15 mins; format: functional, tissue-based; details: dose 10-15 µg/ml
Mus musculus [20] = assay: In vivo antagonism of dalteparin sodium induced anticoagulation in ICR mouse assessed as bleeding time at 0.4 mg/kg, iv administered via tail vein pretreated with heparin for 5 mins followed by compound addition and measured after 5 mins (reference value: 96.5 +/- 20.6 min); format: functional
Homo sapiens [21] = organism: Homo sapiens; assay: Reversal of anticoagulation of enoxaparin sodium in human whole blood assessed as restoration of normal clotting strength at 2 to 20 ug/ml incubated for 5 mins by thromboelastography; format: tissue-based; details: dose 2-20 µg/ml
Blood [22] = assay: Ex vivo neutralization of dalteparin sodium in Sprague-Dawley rat whole blood assessed as restoration of blood coagulation at 10 to 15 ug/ml incubated for 15 mins; format: functional, tissue-based; details: dose 10-15 µg/ml
[23] = Toxicity in ICR mouse assessed as effect on animal activity at 0.4 to 25 mg/kg, iv administered as single dose through tail vein and measured after 3 to 14 days; format: organism-based; details: in vivo, dose lower 0.4 mg/kg, time lower 3 day, dose upper 25 mg/kg, time upper 14 day
Bos taurus [24] = organism: Bos taurus; assay: Neutralization of unfractionated heparin in bovine plasma at 10 to 60 ug/ml by aPTT assay; format: cell-free; details: dose 10-60 µg/ml
[25] = Toxicity in ICR mouse assessed as effect on animal activity at 25 mg/kg, iv administered as single dose through tail vein and measured on day 2; format: organism-based; details: in vivo, 48 h, time 2 day
Homo sapiens [26] = organism: Homo sapiens; assay: Reversal of anticoagulation of […] in human whole blood assessed as restoration of normal clotting strength at 2 to 20 ug/ml incubated for 5 mins by thromboelastography; format: tissue-based; details: dose 2-20 µg/ml
[27] = Toxicity in ICR mouse assessed as histopathological changes in kidneys at 25 mg/kg, iv administered as single dose through tail vein and measured after 14 days by H and E staining based analysis; format: organism-based, Kidney; details: in vivo, 336 h, time 14 day
[28] = Binding affinity to enoxaparin sodium in saline at pH 7.4 assessed as change in enthalpy by ITC analysis
Erythrocyte = assay: Hemolytic activity in Sprague-Dawley rat red blood cells at 512 ug/ml; format: toxicity, cell-based; details: dose 512 µg/ml
[29] = Binding affinity to enoxaparin sodium in saline at pH 7.4 assessed as increase in fluorescence by measuring inflection point by fluorescence titration method
Homo sapiens [30] = organism: Homo sapiens; assay: Reversal of anticoagulation of unfractionated heparin in human whole blood assessed as restoration of normal clotting strength at 2 to 20 ug/ml incubated for 5 mins by thromboelastography; format: tissue-based; details: dose 2-20 µg/ml
Rattus norvegicus [31] = assay: In vivo antagonism of enoxaparin sodium induced anticoagulation in Sprague-Dawley rat assessed as restoration of normal clotting strength at 1 mg/kg, iv administered via tail vein pretreated with enoxaparin sodium for 5 mins followed by compound addition and measured after 2.5 mins by thromboelastography; format: functional, organism-based
Rattus norvegicus [32] = assay: In vivo antagonism of enoxaparin sodium induced anticoagulation in Sprague-Dawley rat assessed as clotting strength at 0.4 mg/kg, iv administered via tail vein pretreated with enoxaparin sodium for 5 mins followed by compound addition and measured after 2.5 mins by thromboelastography; format: functional
[33] = Binding affinity to nadroparin calcium in saline at pH 7.4 assessed as increase in fluorescence by measuring inflection point by fluorescence titration method
[34] = Binding affinity to dalteparin sodium in saline at pH 7.4 assessed as change in entropy by ITC analysis
[35] = Binding affinity to nadroparin calcium in saline at pH 7.4 assessed as change in enthalpy by ITC analysis

## NCCOc1ccc(-c2cc[n+](Cc3ccc(C(c4ccc(C[n+]5ccc(-c6ccc(OCCN)c(OCCN)c6)cc5)cc4)(c4ccc(C[n+]5ccc(-c6ccc(OCCN)c(OCCN)c6)cc5)cc4)c4ccc(C[n+]5ccc(-c6ccc(OCCN)c(OCCN)c6)cc5)cc4)cc3)cc2)cc1OCCN.[Cl-].[Cl-].[Cl-].[Cl-]
Homo sapiens [1]
  Activity: Active
Bos taurus [2]
  Activity: Active
Mus musculus [3]
  Time: 22.7 min
Homo sapiens [4]
  Activity: 100%
Homo sapiens [5]
  MED: 4 µg/mL
Bos taurus [6]
  Activity: Active
[7]
  deltaH: -5.07 kcal/mol
[8]
  deltaH: -5.86 kcal/mol
[9]
  deltaG: -10.2 kcal/mol
[10]
  MTD at 168 h: 25 mg/kg
Homo sapiens [11]
  Activity: Active
[12]
  Activity: Non-Toxic
[13]
  Activity: Toxic
[14]
  Ka: 4.78e+07 M⁻¹
[15]
  Activity: Non-Toxic
Blood [16]
  Activity: Toxic
Homo sapiens [17]
  MED: 4 µg/mL
[18]
  viability at 24 h, 300 ug/ml: > 80%
Blood [19]
  Activity: Active
Mus musculus [20]
  Time: 20.9 min
Homo sapiens [21]
  Activity: Active
Blood [22]
  Activity: Active
[23]
  Activity: Non-Toxic
Bos taurus [24]
  Activity: Active
[25]
  Activity: Toxic
Homo sapiens [26]
  Activity: Active
[27]
  Activity: Non-Toxic
[28]
  deltaH: -7.86 kcal/mol
Erythrocyte
  Activity: Non-Toxic
[29]
  IP: 2.2
Homo sapiens [30]
  Activity: Active
Rattus norvegicus [31]
  Activity: Active
Rattus norvegicus [32]
  Activity: 67 mm
[33]
  IP: 3
[34]
  -TdeltaS: -5.41 kcal/mol
[35]
  deltaH: -6.53 kcal/mol
